Like-named read-outs stand apart in the source and are kept apart here.
Key:
[1] = system: human MX-1 mammary tumor; experiment: In vivo antitumor activity vs i.c.-implanted human MX-1 mammary tumor xenograft in athymic mice; details: ic MX-1; optimal doses (LD10 or less), schedule QD1-5, administered LP.
[2] = system: P388/CPA leukemia; experiment: Antitumor activity against IP-implanted P388/CPA leukemia in mice; assay type: in vivo, murine; details: P388/CPA, Q1D × 5 (1)
[3] = system: P388/0 leukemia; details: P388/0, Q1D × 5 (1); for MEDIAN DAY OF DEATH: dying mice only
[4] = system: P388/L-PAM leukemia; details: for 50-DAY SURV/TOTAL / % ILS / APPROX. NET LOG10 CHANGE IN TUMOR BURDEN AT END OF Rx / MEDIAN DAY OF DEATH: P388/L-PAM, Q1D × 5 (1); for MEDIAN DAY OF DEATH: dying mice only
[5] = system: patients; details: patients with advanced solid tumors; one hour infusion for 5 consecutive days; cited from earlier work
[6] = tumor-bearing rats, 14C-penclomedine; cited from earlier work
[7] = system: P388/BCNU leukemia; experiment: Antitumor activity against IP-implanted P388/BCNU leukemia in mice; details: P388/BCNU, Q1D × 5 (1); for MEDIAN DAY OF DEATH: dying mice only

For `COc1nc(C(Cl)(Cl)Cl)c(Cl)c(OC)c1Cl` [PEN, 3,5-dichloro-2,4-dimethoxy-6-(trichloromethyl)pyridine], the “Median % ILS (based on dying mice only)” value [1] was 88%, the Survivors [1] was 0/5 and the “50-DAY SURV/TOTAL” value ([2]; IP 60.0 mg/kg/dose) was 0/6. The “% ILS” value ([2]; IP 60.0 mg/kg/dose) was −5%, the “APPROX. NET LOG10 CHANGE IN TUMOR BURDEN AT END OF Rx” value ([2]; IP 60.0 mg/kg/dose) was “+1.7” and the “50-DAY SURV/TOTAL” value ([2]; IP 90.0 mg/kg/dose) was 0/6. For the same molecule, the “% ILS” value ([2]; IP 90.0 mg/kg/dose) was −5%, the “APPROX. NET LOG10 CHANGE IN TUMOR BURDEN AT END OF Rx” value ([2]; IP 90.0 mg/kg/dose) was “+1.7” and the “50-DAY SURV/TOTAL” value ([2]; IP 135.0 mg/kg/dose) was 0/6. For the same molecule, the “% ILS” value ([2]; IP 135.0 mg/kg/dose) was −5%, the “APPROX. NET LOG10 CHANGE IN TUMOR BURDEN AT END OF Rx” value ([2]; IP 135.0 mg/kg/dose) was “+1.7” and the “50-DAY SURV/TOTAL” value ([3]; IP 60.0 mg/kg/dose) was 0/6. For the same molecule, the “% ILS” value ([3]; IP 60.0 mg/kg/dose) was “+31%”, the “APPROX. NET LOG10 CHANGE IN TUMOR BURDEN AT END OF Rx” value ([3]; IP 60.0 mg/kg/dose) was “+0.4” and the “50-DAY SURV/TOTAL” value ([3]; IP 90.0 mg/kg/dose) was 0/6. The “% ILS” value ([3]; IP 90.0 mg/kg/dose) was “+45%”, the “APPROX. NET LOG10 CHANGE IN TUMOR BURDEN AT END OF Rx” value ([3]; IP 90.0 mg/kg/dose) was −0.8 and the “MEDIAN DAY OF DEATH” value ([3]; IP 90.0 mg/kg/dose) was 18.0. For the same molecule, the “50-DAY SURV/TOTAL” value ([3]; IP 135.0 mg/kg/dose) was 0/6, the “% ILS” value ([3]; IP 135.0 mg/kg/dose) was “+90%” and the “APPROX. NET LOG10 CHANGE IN TUMOR BURDEN AT END OF Rx” value ([3]; IP 135.0 mg/kg/dose) was −4.8. For the same molecule, the “MEDIAN DAY OF DEATH” value ([3]; IP 135.0 mg/kg/dose) was 21.0, the “50-DAY SURV/TOTAL” value ([4]; IP 60.0 mg/kg/dose) was 0/6 and the “% ILS” value ([4]; IP 60.0 mg/kg/dose) was 0%. The “APPROX. NET LOG10 CHANGE IN TUMOR BURDEN AT END OF Rx” value ([4]; IP 60.0 mg/kg/dose) was “+1.4”, the “MEDIAN DAY OF DEATH” value ([4]; IP 60.0 mg/kg/dose) was 14.0 and the “50-DAY SURV/TOTAL” value ([4]; IP 90.0 mg/kg/dose) was 0/6. The “% ILS” value ([4]; IP 90.0 mg/kg/dose) was −8%, the “APPROX. NET LOG10 CHANGE IN TUMOR BURDEN AT END OF Rx” value ([4]; IP 90.0 mg/kg/dose) was “+1.6” and the “MEDIAN DAY OF DEATH” value ([4]; IP 90.0 mg/kg/dose) was 13.0. The “50-DAY SURV/TOTAL” value ([4]; IP 135.0 mg/kg/dose) was 0/6, the “% ILS” value ([4]; IP 135.0 mg/kg/dose) was −8% and the “APPROX. NET LOG10 CHANGE IN TUMOR BURDEN AT END OF Rx” value ([4]; IP 135.0 mg/kg/dose) was “+1.6”. The “MEDIAN DAY OF DEATH” value ([4]; IP 135.0 mg/kg/dose) was 13.0, the “activity in the P388/L-PAM tumor model (in words)” value ([4]; mouse, in vivo) was “none of the three showed significant activity” and the “neurotoxicity (dysmetria, ataxia, vertigo)” value [5] was “principal dose limiting toxicity”. For the same molecule, the “predominant radioactive species in the brain” value [6] was “predominant radioactive species in the brain was penclomedine”, the “50-DAY SURV/TOTAL” value ([7]; IP 60.0 mg/kg/dose) was 0/6 and the “% ILS” value ([7]; IP 60.0 mg/kg/dose) was −6%. For the same molecule, the “APPROX. NET LOG10 CHANGE IN TUMOR BURDEN AT END OF Rx” value ([7]; IP 60.0 mg/kg/dose) was “+1.8”, the “MEDIAN DAY OF DEATH” value ([7]; IP 60.0 mg/kg/dose) was 8.5 and the “50-DAY SURV/TOTAL” value ([7]; IP 90.0 mg/kg/dose) was 0/6. For the same molecule, the “% ILS” value ([7]; IP 90.0 mg/kg/dose) was 0%, the “APPROX. NET LOG10 CHANGE IN TUMOR BURDEN AT END OF Rx” value ([7]; IP 90.0 mg/kg/dose) was “+1.7” and the “MEDIAN DAY OF DEATH” value ([7]; IP 90.0 mg/kg/dose) was 9.0. The “50-DAY SURV/TOTAL” value ([7]; IP 135.0 mg/kg/dose) was 0/6, the “% ILS” value ([7]; IP 135.0 mg/kg/dose) was “+27%” and the “APPROX. NET LOG10 CHANGE IN TUMOR BURDEN AT END OF Rx” value ([7]; IP 135.0 mg/kg/dose) was “+1.2”.

Source: patent publication US6376518B1, “Acyl derivatives of 4-demethylpenclomedine, use thereof and preparation thereof” (Southern Research Institute, priority 1999, dated 2002)
